The text below walks through data of patent publication US10894777B2, “TG2 inhibitor piperazine compounds and uses thereof” (UNIVERSITY OF OTTAWA, priority 2016, dated 2021).

In one assay the target is T1, TG2 (Homo sapiens, UniProt P21980).
T1 sequence (P21980 1-687): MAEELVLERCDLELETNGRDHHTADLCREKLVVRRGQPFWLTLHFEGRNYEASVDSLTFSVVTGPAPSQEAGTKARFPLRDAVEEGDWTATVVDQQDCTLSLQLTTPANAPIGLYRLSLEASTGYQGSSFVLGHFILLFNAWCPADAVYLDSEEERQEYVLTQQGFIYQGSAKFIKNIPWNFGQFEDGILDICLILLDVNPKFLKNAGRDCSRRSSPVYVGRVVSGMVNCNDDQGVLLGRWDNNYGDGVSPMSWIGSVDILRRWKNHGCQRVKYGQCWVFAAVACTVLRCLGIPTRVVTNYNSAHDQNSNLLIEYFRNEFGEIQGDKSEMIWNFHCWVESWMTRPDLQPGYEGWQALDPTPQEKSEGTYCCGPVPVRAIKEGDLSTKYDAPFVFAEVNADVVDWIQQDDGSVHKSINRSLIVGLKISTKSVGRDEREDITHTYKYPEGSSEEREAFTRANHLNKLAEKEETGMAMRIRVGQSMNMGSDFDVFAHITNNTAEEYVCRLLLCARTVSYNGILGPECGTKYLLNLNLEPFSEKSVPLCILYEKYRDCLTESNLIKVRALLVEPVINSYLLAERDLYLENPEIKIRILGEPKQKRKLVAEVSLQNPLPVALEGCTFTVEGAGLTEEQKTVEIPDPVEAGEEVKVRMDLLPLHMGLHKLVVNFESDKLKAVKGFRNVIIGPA
Briefly: In vitro GTP binding assay after inhibition of hTG2 (BODIPY GTP-γ-S). The following applies: inhibitor 2×KI, 30 min; 3 μM GTP-γ-S FL BODIPY. The procedure: In vitro GTP binding assay. GTP binding was measured using a method similar to that reported previously (McEwen, D. P. et al., Anal. Biochem. (2001), 291 (1): 109-117). […] The buffer was then exchanged to 100 mM MOPS (pH=7.0), 1 mM EGTA and 5 mM MgCl2 to remove calcium using a 10-kDa molecular weight cut off membrane. The fluorescent GTP analog was then added to give a final concentration of 3.0 μM and fluorescence was then measured on a microplate reader after 10 minutes of incubation (Ex/Em: 490/520 nm).

For assay [1], the system named is TG2 fusion protein mCer-TG2-YFP. Briefly: Fluorescence lifetime imaging (FLIM) of mCer-TG2-YFP conformation, SCC-13 cells. The assay is classed as cell-based, human. The following applies: 10 μM A23187, 24 h; control 2.94 ns. On the procedure:
We monitored the impact of each inhibitor on intracellular TG2 structure using FLIM (Fluorescence Lifetime Imaging Microscopy). FLIM is a quantitative method of assessing fluorescence lifetime that measures energy transfer between donor and accept probes Fluorescence lifetime is measured in nanoseconds and a short lifetime correlates with close contact between probes (FIG. 29B). An advantage of this method is that fluorescent lifetimes are independent of probe concentration. In the present experiments, we expressed in cells a TG2 fusion protein in which the donor probe (mCER) is fused to the N-terminus and the acceptor probe (YFP) at the C-terminus (FIG. 29B). mCER and YFP comprise an ideal donor/acceptor pair; the donor probe is excited by laser illumination and energy transfer to the acceptor is monitored. The fluorescent lifetime is shorter when TG2 is in the closed conformation which brings mCER and YFP close together. SCC-13 cells were electroporated with empty vector, mCER-TG2 or mCER-TG2-YFP.
Fluorescence lifetime imaging. Fluorescence lifetime images were acquired using FLIM system (Alba 5 from ISS). […] Emission was observed through bandpass filter 480/35 nm (Chroma Technology) and detected by a photomultiplier H7422-40 (Hamamatsu). FLIM data were acquired using time-domain modality (SPC-830 TCSPC module from Becker and Hickl GmbH). […] To account for intensity heterogeneity within single intensity images, two to five consecutive scans were acquired and summed to build FLIM intensity image for lifetime analysis. […] FLIM data were analyzed using VistaVision Suite software (Vista v.213 from ISS). Lifetime images were generated by fitting data using single exponential intensity decay model. Intensity threshold for lifetime analysis was set of at least 3-fold above the intensity of dim cells and fitting procedure was performed for binned pixels at level of 3 (7×7 pixels). Lifetime distribution within image is represented with histogram showing pixel frequency of specific lifetime. The average lifetime values with standard deviations were calculated based on all processed pixels in lifetime image. FRET values were calculated according to the formula ET=1−(τDA/τD), where τD is the lifetime of donor (mCer-TG2) and τDA is the lifetime of donor-acceptor pair (mCer-TG2—YFP).

Assay [2] relates to glioblastoma multiforme (GBM) cell lines. The following applies: cited from earlier work.
The next assay deals with EGFR. The conditions noted are these: cited from earlier work; for EGFR levels: U87, but not T98G cells, 24 hrs.
The next assay deals with SCC-13 cells. In words: Spheroid formation / survival assay, SCC-13 cells (ECS cells). The assay is classed as cell-based, human. The conditions noted are these: PF-573228 10 μM, 6 d. On the procedure:
Spheroid formation assay. Cells, maintained as monolayer cultures in growth medium consisting of DMEM (Invitrogen, Frederick, Md.) supplemented with 4.5 mg/ml D-glucose, […] L-glutamine, […] sodium pyruvate, and 5% fetal calf serum, were harvested, collected by centrifugation, and resuspended in spheroid medium comprising DMEM/F12 (1:1) (DMT-10-090-CV, Mediatech Inc., Manassas, Va.) supplemented with 2% B27 serum-free supplement (17504-044, Invitrogen, Frederick, Md.), 20 ng/ml EGF (E4269, Sigma, St. Louis, Mo.), 0.4% bovine serum albumin (B4287, Sigma) and 4 μg/ml insulin (19278 Sigma, St. Louis, Mo.). The cells (40,000) were plated in 9.6 cm^2 wells in Costar six well ultra-low attachment cluster dishes (4371, Corning, Tewksbury, Mass.). Spheroid size and number was monitored with time in culture as previously described (Adhikary, G. et al., PLoS One 8:e84324, 2013).
Spheroid formation assay. Spheroid formation assays were exactly as outlined previously (Adhikary, G. et al., PLoS ONE 8:e84324, 2013), except that the spheroids were grown in six well ultra-low attachment Costar cluster dishes (4371, Corning, Tewksbury, Mass.).
Spheroid formation assay. Spheroid formation assays were as reported previously (Adhikary, G. et al., PLoS One 8:e84324, 2013), except that the spheroids were grown in 6-well ultralow attachment Costar cluster dishes (Corning).

The target of the next assay is FAK kinase (Homo sapiens, UniProt Q05397).
The next assay relates to ΔNp63α. Briefly: ΔNp63α level immunoblot, YAP1-siRNA SCC-13 cells. The assay is classed as cell-based, human. The conditions noted are these: 1 μM lactacystin, 24 h. The procedure: In (A), cells were grown in spheroid medium in monolayer or spheroid culture and after 10 d harvested for immunoblot. In (B), SCC13-Control-shRNA and SCC13-TG2-shRNA2 cells were grown in monolayer culture in spheroid medium and lysates were collected for immunoblot detection of the indicated epitopes. […] In (F), SCC13-Control-shRNA and SCC13-TG2-shRNA2 cells were grown as monolayers in spheroid medium and lysates collected at 6 d for marker detection. In (G), SCC-13 cells were double-electroporated with Control- or TG2-siRNA and given 24 h to recover before being seeded on chamber slides. The following day, cells were fixed in 4% paraformaldehyde, stained with anti-YAP1 and appropriate secondary antibody, and co-stained with DAPI. In (H), SCC-13 cells, double-electroporated with Control- or TG2-siRNA, were grown in spheroid medium for 48 h prior to extracts being prepared for assay of ΔNp63α mRNA by qRT-PCR. In (I), SCC-13 cells were grown as spheroids and at day 8 lysates were collected for immunoprecipitation/immunoblot. In (J), SCC-13 cells were double-electroporated with Control- or YAP-siRNA followed by treatment with 1 μM lactacystin in monolayer culture. Extracts were prepared after an additional 24 h. In (K), SCC-13 cells were double-electroporated with Control- or YAPsiRNA and after 2 d in monolayer culture extracts were prepared for immunoblot. […]

Each structure is given as a SMILES string. Non-standard residues stand in square brackets, D forms with d. Residues, ends and D or L forms follow the SMILES beside them. *: point of attachment. DON = [N-]=[N+]=CC(=O)CC[C@H](N)C(=O)O; Cbz = O=C(OCc1ccccc1)*

FAK kinase, sequence (Q05397 whole entry): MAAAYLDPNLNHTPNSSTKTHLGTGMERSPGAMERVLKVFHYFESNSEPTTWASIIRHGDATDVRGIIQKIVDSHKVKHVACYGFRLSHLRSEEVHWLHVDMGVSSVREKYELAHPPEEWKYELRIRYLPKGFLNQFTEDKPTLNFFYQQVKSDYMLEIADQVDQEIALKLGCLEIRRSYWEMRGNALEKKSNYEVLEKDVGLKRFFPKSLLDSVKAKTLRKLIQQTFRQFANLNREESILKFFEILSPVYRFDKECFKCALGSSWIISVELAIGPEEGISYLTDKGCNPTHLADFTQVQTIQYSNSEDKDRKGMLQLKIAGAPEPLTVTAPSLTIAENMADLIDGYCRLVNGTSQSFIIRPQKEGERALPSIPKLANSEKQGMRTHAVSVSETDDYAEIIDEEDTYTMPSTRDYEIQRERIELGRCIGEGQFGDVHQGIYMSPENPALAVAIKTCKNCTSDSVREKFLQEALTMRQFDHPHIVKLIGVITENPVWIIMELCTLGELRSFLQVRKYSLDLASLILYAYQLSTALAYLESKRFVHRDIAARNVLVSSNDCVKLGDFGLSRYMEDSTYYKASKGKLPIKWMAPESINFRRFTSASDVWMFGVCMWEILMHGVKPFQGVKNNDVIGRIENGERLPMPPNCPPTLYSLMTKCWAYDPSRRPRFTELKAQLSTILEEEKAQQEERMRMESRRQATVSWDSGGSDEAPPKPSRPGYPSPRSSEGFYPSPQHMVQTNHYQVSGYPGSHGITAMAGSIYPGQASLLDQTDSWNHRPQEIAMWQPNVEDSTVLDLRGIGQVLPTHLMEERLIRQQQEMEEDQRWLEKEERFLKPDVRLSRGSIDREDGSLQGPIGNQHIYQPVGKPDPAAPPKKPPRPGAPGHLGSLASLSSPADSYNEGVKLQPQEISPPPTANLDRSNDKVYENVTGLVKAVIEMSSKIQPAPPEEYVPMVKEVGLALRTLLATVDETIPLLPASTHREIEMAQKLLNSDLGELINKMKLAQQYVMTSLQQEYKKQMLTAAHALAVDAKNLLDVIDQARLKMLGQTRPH
Method for FAK kinase: SCC-13 cells (40,000 per well) were grown in spheroid medium in attached (monolayer) or non-attached (spheroid, ECS cell). Cells were collected after 10 d and lysates were prepared for immunoblot. In (B), SCC-13 cells spheroid were grown for 8 d and extracts were immunoprecipitated as indicated prior to immunoblot. […] Cells were grown in spheroid medium in monolayer culture for 10 d prior to collection of lysates for immunoblot. […] In (J), (K), and (L), cells were double-electroporated with indicated siRNA and 24 h later plated for spheroid formation in the presence of the indicated inhibitor. […] The plotted values are mean±SEM and asterisks indicate significant change compared to control, n=3, p<0.005.
Immunoblot. Equivalent amounts of protein were electrophoresed on denaturing and reducing 10% polyacrylamide gels and transferred to nitrocellulose membrane. […] Secondary antibody binding was visualized using ECL Prime (Amersham) chemiluminescence detection technology.

With `C=CC(=O)NCCCC[C@H](NC(=O)OCc1ccccc1)C(=O)N1CCN(C(=O)c2cccc3ccccc23)CC1` [AA9, (S)-benzyl (1-(4-(1-naphthoyl)piperazin-1-yl)-6-acrylamido-1-oxohexan-2-yl)carbamate], the “GTP binding of hTG2 after incubation with inhibitor” value on TG2 is “abolish GTP binding nearly completely”. In the case of `CNc1ccc2oc(C[C@H]3O[C@@]4(CC[C@H]3C)O[C@H]([C@H](C)C(=O)c3ccc[nH]3)[C@H](C)C[C@H]4C)nc2c1C(=O)O` [Compound A23187, reference compound], the “fluorescence lifetime of mCer-TG2-YFP” value in assay [1] is given as approximately 3.1 ns. Turning to `CN(C)c1cccc2c(S(=O)(=O)NCCCCCN)cccc12` [MDC, monodansylcadaverine], in assay [2], the “proliferation of GBM cell lines” value is “reduce proliferation in two out of three glioblastoma multiforme (GBM) cell lines tested”. In the assay on EGFR, the EGFR levels entry was “reduced the levels of EGFR”. Also, the “EGFR phosphorylation in response to EGF” value in the assay on EGFR (U87 cells, 30 min pretreatment) was “greatly reduced the extent of EGFR phosphorylation”. Consider `CS(=O)(=O)c1cccc(CNc2nc(Nc3ccc4c(c3)CCC(=O)N4)ncc2C(F)(F)F)c1` [PF-573228, reference compound], for which the “spheroid formation with kinase inhibitor” value in the assay on SCC-13 cells is given as “markedly reduced spheroid formation”. In addition, the FAK kinase activity result on FAK kinase is recorded as “reduced FAK kinase activity”.

On to `COC(=O)[C@H](CC(C)C)NC(=O)[C@@H]1CCCN1C(=O)[C@@H](NC(=O)[C@H](CCC(=O)C=[N+]=[N-])NC(=O)OCc1ccccc1)C(C)C` [Z-DON] (Cbz-[DON]VPL-OMe), for which the “proliferation of GBM cell lines” value in assay [2] is “reduce proliferation in two out of three glioblastoma multiforme (GBM) cell lines tested”. Further, the EGFR levels entry with EGFR is “reduced the levels of EGFR”.

For `CC(=O)N[C@@H](CSC(=O)[C@]1([C@@H](O)C(C)C)NC(=O)[C@H](C)[C@@H]1O)C(=O)O` [lactacystin], the “ΔNp63α reduction caused by YAP1-siRNA” value with ΔNp63α is given as “partially reversed”.
